Patent US20080200439A1, “Methods and compositions for modulating BK channel activity and vasodilation” (University of Tennessee Research Foundation, priority 2006, published 2008)

Assays:
BK channels = conditions: cited from earlier work
[1] = system: pressurized resistance cerebral arteries; assay: Artery diameter measurement, pressurized rat middle cerebral arteries; conditions: 0.8 mM
Protocol: Artery Diameter Measurement. Middle cerebral arteries were isolated from adult male Sprague-Dawley rats (=250 g) or 8- to 12-week-old β1-knockout and C57BL/6 control mice. Rats and mice were decapitated using a guillotine and sharp scissors, respectively. These procedures were approved by the Institutional Animal Care and Use Committee from The University of Tennessee Health Science Center, an AMLAC-accredited institution. Pressurization of arteries was performed as described (Liu et al., 2004). Endothelium was removed by passing an air bubble into the vessel lumen for 90 sec. Diameter changes were monitored through an inverted microscope (Nikon Eclipse TS100, Nikon Corp., Tokyo, Japan), recorded on camera (Sanyo VCB-3512T, Sanyo Electric Corp., Japan), and transferred to a computer. Diameter data were acquired and analyzed using IonWizard 4.4 software (IonOptics Corp., Milton, Mass., United States of America).
Pressurized arteries were extraluminally perfused with physiological saline solution (PSS) (Liu et al., 2004) at a constant rate of 3.75 ml/min using a peristaltic pump Dynamax RP-1 (Rainin Instrument, Inc., Oakland, Calif., United States of America). At this rate, complete washout of the iberiotoxin (Ibtx) effect required >45 min. To keep basal tone under steady behavior, we shortened this period by increasing flow rate ˜3 times during washout of Ibtx, which sometimes evoked a flow-induced dilation (FIG. 1A). Equal volumes (25 ml) of vehicle- vs. LC-containing solutions were applied at equal, constant rate (see above) to the pressurized arterial segment in the chamber via a gravity system. Drugs were dissolved to make stock solutions (see Chemicals) and diluted in PSS to final concentration.
Chemicals. All chemicals were purchased from Sigma (St. Louis, Mo., United States of America), with the exception of 5β-cholanic acid 3α-ol (LC) (Steraloids, Inc., Newport, R.I., United States of America) and Ibtx (Alomone Labs Ltd., Jerusalem, Israel). On the day of the experiment, an LC stock solution (333 mM) in dimethyl sulfoxide (DMSO) was freshly prepared by sonication for 5 min. For arterial tone experiments, the LC stock was diluted 1/10 in DMSO and further diluted in PSS to render final LC concentration. Solution containing vehicle (0.1% DMSO; V/V) was used as control perfusion. For electrophysiological recordings, the LC stock solution was diluted 1/10 in 95% ethanol and further diluted with bath solution to render final LC concentration (3-1,000 μM). The DMSO/ethanol vehicle (≦0.1/≦0.86% final concentrations) in bath solution was used as control.
Data Analysis. Artery diameter response to each compound is shown as a percentage of the diameter obtained before compound application. Arterial diameter and electrophysiological data were analyzed with IonWizard 4.4 (IonOptics Corp., Milton, Mass., United States of America) and pCLAMP 8.0 (Molecular Devices, Union City, Calif., United States of America). Further analysis, plotting, and fitting were conducted using Origin 7.0 (Originlab Corp., Northampton, Mass., United States of America) and InStat 3.0 (GraphPad Software Inc., San Diego, Calif., United States of America).
After myogenic tone development at 60 mm Hg, intact arteries reached a diameter of 154.4±5.2 μm (n=17). Maximal contraction and dilation were checked by perfusing the vessel with 60 mM KCl at the beginning, and Ca^2+-free solution at the end of each experiment (FIGS. 1A & 1B). In all cases (n=17), application of 45 μM LC, that is, concentrations well below LC's critical micellar concentration (CMC) (≧1 mM under our recording conditions) (Roda et al., 1995) caused a significant increase in peak arterial diameter: +6% on top of a transient increase in diameter caused by vehicle-containing solution (FIGS. 1A-1C). […]

cbv1+β1 channels = cbv1+β1 channels (UniProt Q16558+Q62976); assay: Patch-clamp of heteromeric cbv1+β1 channels expressed in Xenopus oocytes; type: cell-based, rat; conditions: 10 μM; bath application to extracellular surface of O/O patches
Sequence of cbv1+β1 channels (Q62976 1-1148 isoform Q62976-2): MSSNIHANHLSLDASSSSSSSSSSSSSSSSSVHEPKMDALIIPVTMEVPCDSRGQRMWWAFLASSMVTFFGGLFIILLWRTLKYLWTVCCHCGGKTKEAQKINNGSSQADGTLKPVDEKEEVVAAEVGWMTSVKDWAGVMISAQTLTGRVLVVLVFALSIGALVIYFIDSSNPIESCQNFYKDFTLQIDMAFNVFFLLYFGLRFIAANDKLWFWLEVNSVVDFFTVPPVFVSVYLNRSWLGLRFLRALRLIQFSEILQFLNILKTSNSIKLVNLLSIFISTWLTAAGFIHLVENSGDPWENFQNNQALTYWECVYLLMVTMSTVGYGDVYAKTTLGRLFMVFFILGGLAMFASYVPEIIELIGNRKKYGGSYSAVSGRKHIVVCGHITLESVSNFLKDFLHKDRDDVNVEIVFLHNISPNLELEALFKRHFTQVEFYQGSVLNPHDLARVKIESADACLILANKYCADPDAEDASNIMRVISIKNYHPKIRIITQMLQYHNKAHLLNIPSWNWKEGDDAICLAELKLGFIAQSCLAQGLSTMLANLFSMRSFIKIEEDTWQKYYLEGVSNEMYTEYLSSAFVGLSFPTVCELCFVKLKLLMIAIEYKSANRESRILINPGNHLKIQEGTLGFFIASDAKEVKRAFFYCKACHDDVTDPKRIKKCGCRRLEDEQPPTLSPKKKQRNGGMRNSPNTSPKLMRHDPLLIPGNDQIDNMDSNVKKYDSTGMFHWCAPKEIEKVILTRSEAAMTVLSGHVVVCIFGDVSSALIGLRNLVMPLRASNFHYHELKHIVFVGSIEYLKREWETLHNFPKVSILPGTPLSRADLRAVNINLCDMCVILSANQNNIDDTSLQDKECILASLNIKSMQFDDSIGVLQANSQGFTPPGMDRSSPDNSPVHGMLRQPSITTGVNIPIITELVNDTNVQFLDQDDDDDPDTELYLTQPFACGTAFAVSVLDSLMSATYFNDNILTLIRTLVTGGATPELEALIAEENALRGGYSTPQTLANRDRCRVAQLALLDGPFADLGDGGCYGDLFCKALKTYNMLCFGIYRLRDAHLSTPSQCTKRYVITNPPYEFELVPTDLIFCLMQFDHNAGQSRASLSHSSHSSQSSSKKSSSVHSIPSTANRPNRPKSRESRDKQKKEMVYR
Sequence of cbv1+β1 channels (Q16558 whole entry): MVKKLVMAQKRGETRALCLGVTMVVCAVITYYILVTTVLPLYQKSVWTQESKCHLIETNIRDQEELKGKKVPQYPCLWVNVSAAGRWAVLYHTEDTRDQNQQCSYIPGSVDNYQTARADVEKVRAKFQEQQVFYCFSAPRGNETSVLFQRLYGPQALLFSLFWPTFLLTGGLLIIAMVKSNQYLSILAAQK
Excerpt: cRNA Preparation and Injection into Xenopus Oocytes. Full-length cDNA coding for cbv1-subunits was cloned from rat cerebral artery myocytes by PCR and ligated to the PCR-XL-TOPO cloning vector (Invitrogen Corp., Carlsbad, Calif., United States of America) (Jaggar et al., 2005). cDNA coding for cbv1-subunits was cleaved from the cloning vector by BamHI (Invitrogen Corp., Carlsbad, Calif., United States of America) and XhoI (Promega, Madison, Wis., United States of America) and directly inserted into the pOX vector for expression in Xenopus oocytes. pOX-cbv1 was linearized with NotI (Promega, Madison, Wis., United States of America) and transcribed in vitro using T3 polymerase. Beta,-subunit cDNA inserted into the EcoR I/Sal I sites of the pCl-neo expression vector was linearized with NotI and transcribed in vitro using T7 polymerase. Beta4-subunit cDNA inserted into the pOx vector was linearized by NotI and transcribed using T3 polymerase. The mMessage-mMachine kit (Ambion Inc., Austin, Tex., United States of America) was used for transcription. The pOX vector and the cDNA coding for β1-subunits were generous gifts from Aguan Wei (Washington University, Saint Louis, Mo., United States of America) and Maria Garcia (Merck Research Laboratories, Whitehouse Station, N.J., United States of America).
Oocytes were removed from Xenopus laevis and prepared as described (Dopico et al., 1998). cRNA was dissolved in […] at 5 (cbv1) and 15 (β1 or β4) ng/μl; 1-μl aliquots were stored at −70° C. Cbv1 cRNA was injected alone (2.5 ng/μp) or coinjected with either β1 or β4 (7.5 ng/μl) cRNAs, giving molar ratios ≧6:1 (β:α). cRNA injection (23 nl/oocyte) was conducted using a modified micropipette (Drummond Scientific Co., Broomall, Pa., United States of America). The interval between injection and patch-clamp recordings was 48-72 h.
Electrophysiology. Oocytes were prepared for patch-clamp recordings as described (Dopico et al., 1998). Single-channel and macroscopic currents were recorded from inside-out (I/O) or outside-out (O/O) patches. For experiments with oocytes, both bath and electrode solutions contained (mM) 135 K^+ gluconate, 5 EGTA, 1 MgCl2, 15 HEPES, 10 glucose, pH 7.35. For experiments with myocytes, KCl substituted for K^+ gluconate. In all experiments, free Ca^2+ in solution was adjusted to the desired value by adding CaCl2. In most studies, free Ca^2+ in electrode solution=10 μM. In O/O studies with 17β-estradiol, however, free Ca^2+ in the electrode solution=0.3 μM. Nominal free Ca^2+ was calculated with MaxChelator Sliders (C. Patton, Stanford University, California, United States of America) and validated experimentally using Ca^2+-selective electrodes (Corning Incorporated Science Products Division, Corning, N.Y., United States of America).
Patch-recording electrodes were made as described (Dopico et al., 1998). Immediately before recording, the tip of each electrode was fire-polished on a microforge WPI MF-200 (World Precision Instruments, Inc., Sarasota, Fla., United States of America) to give resistances of 5-9 MD when filled with solution. An agar bridge with gluconate or Cl^− as the main anion (for oocyte and myocyte experiments, respectively) was used as ground electrode. After excision from the cell, the membrane patch was exposed to a stream of bath solution containing each agent at final concentration. Solutions were applied onto the patches using a pressurized system DAD12 (ALA Scientific Instruments, New York, N.Y., United States of America) via a micropipette tip with an internal diameter of 100 μm. Experiments were carried out at room temperature (21° C.).
Currents were recorded using an EPC8 amplifier (HEKA Electronics, Lambrecht/Pfalz, Germany) at 1 kHz using a low-pass, eight-pole Bessel filter 902LPF (Frequency Devices, Haverhill, Mass., United States of America). […]

In the case of `CC/C(=C(\c1ccccc1)c1ccc(OCCN(C)C)cc1)c1ccccc1` [tamoxifen, Tamoxifen], the “Concentrations decreasing unitary current amplitude (as low as)” value (BK channels; Duncan, 2005) is given as 1 to 10 µM.

For `Nc1ccncc1` [4-AP, 4-aminopyridine, reference compound], the Decrease in diameter [1] was −9.7±2.3%.

In the case of `C[C@]12CC[C@@H]3c4ccc(O)cc4CC[C@H]3[C@@H]1CC[C@@H]2O` [17β-estradiol], the “Concentrations modulating BK activity through the channel α-subunit” value (BK channels; Korovkina et al., 2004) is listed as 0.01 to 1 µM, the “Concentrations increasing BK (hslo) channel activity by interacting with the β1-subunit” value (BK channels; Valverde et al., 1999) is listed as 1 to 30 µM and the “Effect on channel activity” value (cbv1+β1 channels) is listed as “channel activation”.
